The values below come from patent US7179825B2, “Retinoic acid mimetic anilides” (Janssen Pharmaceutica N.V., priority 1997, dated 2007).

For the assay, the system named is Ovariectomized rats. Description: Vaginal keratinization test on ovariectomized rats (Example C.2). The assay is classed as in vivo. The note with it: estradiol undecylate induced keratinization, per os once daily on days 1-3, active dose = 50% of rats show complete suppression. The source says:
The property to delay the metabolism of retinoic acid can be evidenced in various in vitro and in vivo experiments. A particular in vitro procedure is described in example C.1 and tests the inhibitory activity of the compounds of formula (I) on the metabolism of retinoic acid in human breast cancer cells. The compounds of the present invention were also effective in suppressing induced vaginal keratinization effects in ovariectomized rats as is described in example C.2.
“Vaginal Keratinization Test on Ovariectomized Rats”
Ovariectomized rats were injected subcutaneously with a sesame oil solution containing 100 μg of estradiol undecylate in a volume of 0.1 ml per 100 g body weight and control animals were injected with sesame oil. On day one, two and three, test animals were treated once daily with a per os dose of the test compound and control animals with the drug vehicle (PEG 200). One day after the last treatment, the animals were sacrificed and their vaginas were processed for histological evaluation according to the method described in J. Pharmacol. Exp. Ther. 261(2), 773–779 (1992). A dose at which 50% of the tested rats show complete suppression of the estradiol undecylate induced keratinization effects is defined as an active dose. Table 23 lists the lowest active dose (LAD in mg/kg) of the compounds of formula (I) which were tested.
As to `COc1cc(CC(=O)Nc2ccc(C(C(C)N(C)C)n3ccnc3)cc2)cc(OC)c1OC` (single isomer, unassigned) [Compound 302], the “LAD (lowest active dose)” value is reported as more than 2.50 mg/kg. The same measure for `COc1ccc(CC(=O)Nc2ccc(C(C(C)N(C)C)n3ccnc3)cc2)cc1Cl` (single isomer, unassigned) [Compound 304]: more than 2.50 mg/kg. Then `Cc1cc(CC(=O)Nc2ccc(C(C(C)N(C)C)n3ccnc3)cc2)cc(C)c1C` (single isomer, unassigned) [Compound 308], with more than 2.50 mg/kg; and `COc1cc(CC(=O)Nc2ccc(C(C(C)N(C)C)n3ccnc3)cc2)ccc1Cl` (single isomer, unassigned) [Compound 310], with 2.50 mg/kg. Consider `COc1ccc(CC(=O)Nc2ccc(C(C(C)N(C)C)n3ccnc3)cc2)cc1C` (single isomer, unassigned) [Compound 312], for which the “LAD (lowest active dose)” value is given as more than 2.50 mg/kg.

In the case of `COc1cc(CC(=O)Nc2ccc(C(C(C)N(C)C)n3ccnc3)cc2)ccc1C` (single isomer, unassigned) [Compound 314], the “LAD (lowest active dose)” value is given as more than 2.50 mg/kg. On to `COc1cc(CC(=O)Nc2ccc(C(C(C)N(C)C)n3ccnc3)cc2)ccc1C` (single isomer, unassigned) [Compound 315], for which the “LAD (lowest active dose)” value was more than 2.50 mg/kg. On to `CC(C(c1ccc(NC(=O)Cc2ccc(N(C)C)cc2)cc1)n1ccnc1)N(C)C` (single isomer, unassigned) [Compound 317], for which the “LAD (lowest active dose)” value is more than 5.00 mg/kg. With `COc1ccc(CC(=O)Nc2ccc(C(C(C)N(C)C)n3ccnc3)cc2)cc1OC` (single isomer, unassigned) [Compound 318], the “LAD (lowest active dose)” value is reported as more than 2.50 mg/kg. Turning to `CCCCOc1ccc(CC(=O)Nc2ccc(C(C(C)N(C)C)n3ccnc3)cc2)cc1` (single isomer, unassigned) [Compound 319], the “LAD (lowest active dose)” value is recorded as more than 5.00 mg/kg.

As for `CCCCOc1ccc(CC(=O)Nc2ccc(C(C(C)N(C)C)n3ccnc3)cc2)cc1` (single isomer, unassigned) [Compound 320], the “LAD (lowest active dose)” value is on record as 5.00 mg/kg. On to `CC(C(c1ccc(NC(=O)Cc2ccc3c(c2)OCCO3)cc1)n1cncn1)N(C)C` (single isomer, unassigned) [Compound 322], for which the “LAD (lowest active dose)” value is more than 2.50 mg/kg. As for `COc1ccc(C(=O)Nc2ccc(C(C(C)N(C)C)n3cncn3)cc2)cc1OC` (single isomer, unassigned) [Compound 324], the “LAD (lowest active dose)” value was more than 2.50 mg/kg. `CC(C(c1ccc(NC(=O)Cc2ccc3c(c2)OCO3)cc1)n1cncn1)N(C)C` (single isomer, unassigned) [Compound 325]: the “LAD (lowest active dose)” value is recorded as 2.50 mg/kg.

`COc1ccc(CCCC(=O)Nc2ccc(C(C(C)N(C)C)n3cncn3)cc2)cc1OC` (single isomer, unassigned) [Compound 326]: the “LAD (lowest active dose)” value is listed as more than 2.50 mg/kg. In the case of `COc1ccc(C(=O)Nc2ccc(C(C(C)N(C)C)n3cncn3)cc2)cc1OC` (single isomer, unassigned) [Compound 327], the “LAD (lowest active dose)” value is recorded as more than 2.50 mg/kg. Then `COc1ccc(CCC(=O)Nc2ccc(C(C(C)N(C)C)n3cncn3)cc2)cc1OC` (single isomer, unassigned) [Compound 328], with more than 2.50 mg/kg; and `COc1ccc(CCCC(=O)Nc2ccc(C(C(C)N(C)C)n3cncn3)cc2)cc1OC` (single isomer, unassigned) [Compound 329], with more than 2.50 mg/kg; and `CC(C(c1ccc(NC(=O)Cc2ccc3c(c2)OCCO3)cc1)n1cncn1)N(C)C` (single isomer, unassigned) [Compound 333], with more than 2.50 mg/kg. For the compound `CC(C(c1ccc(NC(=O)Cc2ccc3c(c2)OCO3)cc1)n1ccnc1)N(C)C` (single isomer, unassigned) [Compound 337], the “LAD (lowest active dose)” value came out at 2.50 mg/kg. The same measure for `CC(C(c1ccc(NC(=O)Cc2ccc3c(c2)OCCO3)cc1)n1ccnc1)N(C)C` (single isomer, unassigned) [Compound 338]: more than 2.50 mg/kg; for `CC(C(c1ccc(NC(=O)Cc2ccc3c(c2)OCO3)cc1)n1ccnc1)N(C)C` (single isomer, unassigned) [Compound 340]: 2.50 mg/kg; for `COc1ccc(C(=O)Nc2ccc(C(C(C)N(C)C)n3ccnc3)cc2)cc1OC` (single isomer, unassigned) [Compound 341]: more than 2.50 mg/kg. Turning to `COc1ccc(C(=O)Nc2ccc(C(C(C)N(C)C)n3ccnc3)cc2)cc1OC` (single isomer, unassigned) [Compound 342], the “LAD (lowest active dose)” value is more than 2.50 mg/kg.

Take `CC(C(c1ccc(NC(=O)Oc2ccccc2)cc1)n1ccnc1)N(C)C` (single isomer, unassigned) [Compound 343]: the “LAD (lowest active dose)” value is on record as more than 2.50 mg/kg. The same measure for `CC(C(c1ccc(NC(=O)N2CCN(C)CC2)cc1)n1ccnc1)N(C)C` (single isomer, unassigned) [Compound 347]: more than 5.00 mg/kg; for `CC(C(c1ccc(NC(=O)N2CCN(C)CC2)cc1)n1ccnc1)N(C)C` (single isomer, unassigned) [Compound 349]: more than 2.50 mg/kg; for `COc1ccccc1OCC(=O)Nc1ccc(C(C(C)N(C)C)n2ccnc2)cc1` (single isomer, unassigned) [Compound 350]: more than 2.50 mg/kg. As to `CCCC(C)C(c1ccc(NC(=O)Cc2ccc(Cl)cc2)cc1)n1ccnc1` (single isomer, unassigned) [Compound 374], the “LAD (lowest active dose)” value was 2.50 mg/kg. For `COc1ccc(CC(=O)Nc2ccc(C(C(C)N(C)C)n3ccnc3)cc2)cc1OC` (single isomer, unassigned) [Compound 379], the “LAD (lowest active dose)” value was more than 2.50 mg/kg. Take `CCOC(=O)C(C)C(c1ccc(NC(=O)Cc2ccc(OC)c(OC)c2)cc1)n1ccnc1` (single isomer, unassigned) [Compound 381]: the “LAD (lowest active dose)” value is recorded as more than 2.50 mg/kg. Regarding `CCCCCC(C)C(c1ccc(NC(=O)Cc2ccc(OC)c(OC)c2)cc1)n1ccnc1` (single isomer, unassigned) [Compound 384], the “LAD (lowest active dose)” value is more than 2.50 mg/kg. As to `CCN(CC)C(C)C(c1ccc(NC(=O)Cc2ccc(OC)c(OC)c2)cc1)n1ccnc1` (single isomer, unassigned) [Compound 387], the “LAD (lowest active dose)” value is reported as more than 2.50 mg/kg. Take `COc1ccc(CC(=O)Nc2ccc(C(C(C)CN3CCCCC3)n3ccnc3)cc2)cc1OC` (single isomer, unassigned) [Compound 390]: the “LAD (lowest active dose)” value is more than 2.50 mg/kg. On to `COc1ccc(CC(=O)Nc2ccc(C(C(C)CN(C)C)n3ccnc3)cc2)cc1OC` (single isomer, unassigned) [Compound 391], for which the “LAD (lowest active dose)” value is reported as more than 5.00 mg/kg. In the case of `COc1ccc(CC(=O)Nc2ccc(C(C(C)CN(C)C)n3ccnc3)cc2)cc1OC` (single isomer, unassigned) [Compound 392], the “LAD (lowest active dose)” value was more than 5.00 mg/kg.

In the case of `COc1ccc(CC(=O)Nc2ccc(C(C(C)N(C)Cc3ccccc3)n3ccnc3)cc2)cc1OC` (single isomer, unassigned) [Compound 396], the “LAD (lowest active dose)” value is on record as more than 2.50 mg/kg. The same measure for `COc1ccc(CC(=O)Nc2ccc(C(C(C)N(C)Cc3ccccc3)n3ccnc3)cc2)cc1OC` (single isomer, unassigned) [Compound 398]: more than 5.00 mg/kg; for `CNC(C)C(c1ccc(NC(=O)Cc2ccc(OC)c(OC)c2)cc1)n1ccnc1.O` (single isomer, unassigned) [Compound 401]: more than 2.50 mg/kg; for `CCCCN(C)C(C)C(c1ccc(NC(=O)Cc2ccc(OC)c(OC)c2)cc1)n1ccnc1` (single isomer, unassigned) [Compound 406]: more than 5.00 mg/kg. As to `COc1ccc(CC(=O)Nc2ccc(C(C(C)N(C)CCN(C)C)n3ccnc3)cc2)cc1OC` (single isomer, unassigned) [Compound 407], the “LAD (lowest active dose)” value is on record as more than 5.00 mg/kg. Consider `COc1ccc(CC(=O)Nc2ccc(C(C(C)N3CCOCC3)n3ccnc3)cc2)cc1OC` (single isomer, unassigned) [Compound 408], for which the “LAD (lowest active dose)” value is more than 5.00 mg/kg. For `COc1ccc(CC(=O)Nc2ccc(C(C(C)N3CCOCC3)n3ccnc3)cc2)cc1OC` (single isomer, unassigned) [Compound 409], the “LAD (lowest active dose)” value was 5.00 mg/kg. In the case of `COc1ccc(CC(=O)Nc2ccc(C(C3CCCN(C)C3)n3ccnc3)cc2)cc1OC` (single isomer, unassigned) [Compound 410], the “LAD (lowest active dose)” value is listed as more than 5.00 mg/kg. The same measure for `COc1ccc(CC(=O)Nc2ccc(C(C3CCCCN3C)n3ccnc3)cc2)cc1OC` (single isomer, unassigned) [Compound 411]: 2.50 mg/kg; for `CCCN(C)C(C)C(c1ccc(NC(=O)Cc2ccc(OC)c(OC)c2)cc1)n1ccnc1` (single isomer, unassigned) [Compound 414]: 5.00 mg/kg. The same measure for `COc1ccc(CC(=O)Nc2ccc(C(C(C)OC(=O)N(Cc3ccccc3)Cc3ccccc3)n3ccnc3)cc2)cc1OC` (single isomer, unassigned) [Compound 417]: more than 5.00 mg/kg. As for `COc1ccc(CC(=O)Nc2ccc(C(C(C)N(Cc3ccccc3)Cc3ccccc3)n3ccnc3)cc2)cc1OC` (single isomer, unassigned) [Compound 419], the “LAD (lowest active dose)” value was more than 5.00 mg/kg.
